Values of other authors, collected in patent US9382205B2, “Processes for the manufacture of a pharmaceutically active agent” (H. Lundbeck A/S, priority 2009, dated 2016).
Blank lines part the entries; values can stand above or below the molecule they belong to.

Experiments:
[1] = tested on: Alzheimer's patients; conditions: first report
[2] = tested on: aged rats
[3] = Rogers et al. 1999
[4] = biological target: human 5-HT6 receptor; conditions: from Roth et al. 1994

Compound: O=S(=O)(c1ccccc1)c1cnc2c(N3CCNCC3)cccc2c1 [SB-742457]
clinical benefit [1]: of clinical benefit

Compound: COc1ccc(NS(=O)(=O)c2sc3ccc(Cl)cc3c2C)cc1N1CCNCC1 [SB-271046]
spatial alternation operant behavior test [2]: improvements
performance in the Morris water maze [3]: improved performance

Ki [4]: 65 nM
Compound: CN(C)CCC=C1c2ccccc2CCc2ccccc21 [amitriptyline]
